Assay results reported in patent US6509367B1 (priority 2001, dated 2003).
“Also recorded” adds a separate entry of the source. Structures can show the parent of a compound that is named as a salt. Where two headings read alike, the source gives them in different places. Marks after values point to notes of the source that are not given here.

Columns and labels:
mice [1] = assay: Spontaneous activity in mice, compound in combination with 3 mg/kg Δ^9-THC (antagonism test); assay type: in vivo; conditions: for SA: maximum % antagonism of 3 mg/kg Δ^9-THC: analog 10 min before Δ^9-THC
Method: (§1) Male ICR mice (25-32 g), purchased from Harlan (Dublin, Va.), were housed in groups of five. All animals were kept in a temperature-controlled (20-22° C.) environment with a 12-hour light-dark cycle (lights on at 7 a.m.). Separate mice were used for testing each drug dose in the in vivo behavioral procedures. The mice were maintained on a […] light: dark cycle, and received food and water ad libitum. Brain tissue for binding studies was obtained from male Sprague-Dawley rats (150-200 g) purchased from Harlan Laboratories (Dublin, Va.).
(§2) Measurement of spontaneous activity in mice occurred in standard activity chambers interfaced with a Digiscan Animal Activity Monitor (Omnitech Electronics, Inc., Columbus, Ohio). A standard tail-flick apparatus (described by Dewey et al., 1970) and a digital thermometer (Fisher Scientific, Pittsburgh, Pa.) were used to measure antinociception and rectal temperature, respectively.
(§3) All drugs were administered to the mice intravenously (i.v.) in the tail vein at a volume of 0.1 ml/10 g.
(§4) Maximum latency of 10 sec was used.

mice [2] = assay: Tail-flick antinociception in mice, compound in combination with 3 mg/kg Δ^9-THC (antagonism test); assay type: in vivo
Method: as §1, §2, §3, §4

mice [3] = conditions: cited from earlier work
mice [4] = conditions: cited from earlier work; remark: listed apart in the source
mice [5] = conditions: cited from earlier work; remark: listed apart in the source
mice [6] = assay: Antagonism tests with 3 mg/kg Δ^9-THC, stated across the measures (locomotor, antinociception, hypothermia)
CB1 receptor = CB1 receptor (Rattus norvegicus, UniProt P20272); assay: biochemical; assay type: binding; conditions: for Ki: 1 nM [3H] CP 55,940, rat whole brain P2 membranes, 30° C. for 1 hr
Sequence of CB1 receptor (P20272 whole entry): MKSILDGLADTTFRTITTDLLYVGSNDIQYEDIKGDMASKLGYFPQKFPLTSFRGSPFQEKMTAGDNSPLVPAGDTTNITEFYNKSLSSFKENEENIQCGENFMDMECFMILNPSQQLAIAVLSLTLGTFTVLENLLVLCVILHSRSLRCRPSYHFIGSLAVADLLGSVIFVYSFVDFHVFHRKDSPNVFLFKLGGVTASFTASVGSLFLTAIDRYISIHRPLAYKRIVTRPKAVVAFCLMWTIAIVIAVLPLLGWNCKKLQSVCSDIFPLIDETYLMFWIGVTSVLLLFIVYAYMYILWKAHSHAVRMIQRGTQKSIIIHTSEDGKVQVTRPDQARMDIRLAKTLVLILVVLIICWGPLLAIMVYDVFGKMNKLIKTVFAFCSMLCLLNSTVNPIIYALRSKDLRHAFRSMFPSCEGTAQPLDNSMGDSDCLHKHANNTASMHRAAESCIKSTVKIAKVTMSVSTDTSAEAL
Method: as §1
All assays, as described briefly below, were performed in triplicate, and the results represent the combined data from three to six individual experiments. Following decapitation and rapid removal of the brain, whole brain was homogenized and centrifuged. The resulting pellet was termed P1. The supernatant was saved and combined with the two subsequent supernatants obtained from washing of the P1 pellet. The combined supernatant fractions were centrifuged, resulting in the P2 pellet. After further incubation and centrifuging, this pellet was resuspended in assay buffer to a protein concentration of approximately 2 mg/ml. The membrane preparation was quickly frozen in a bath solution of dry ice and 2-methylbutane (Sigma Chemical Co., St. Louis, Mo.), then stored at −80° C. for no more than 2 weeks. […] Binding was initiated by the addition of 150 μg of P2 membrane to test tubes containing 1 nM of [3H] […] Following incubation at 30° C. for 1 hr, binding was terminated by addition of ice-cold buffer and vacuum filtration through pretreated filters in a 12-well sampling manifold (Millipore, Bedford, Mass.). After washing, filters were placed into plastic scintillation vials (Packard, Downer Grove, Ill.) and shaken. The quantity of radioactivity present was determined by liquid scintillation spectrometry.

mice [7] = assay: Spontaneous (locomotor) activity in mice, compound alone (agonism test); assay type: in vivo; conditions: for change in vivo at 3 mg/kg: at 3 mg/kg i.v.; for inhibition in vivo at 30 mg/kg: read-out: Max % inhibit of spontaneous locomotor activity, Compound Alone; for stimulation of locomotor activity: compound alone, dose not given (see Table 5)
Method: as §1, §2, §3, §4

mice [8] = assay: Tail-flick antinociception in mice, compound alone (agonism test); assay type: in vivo; conditions: Mus musculus, iv
Method: as §1, §2, §3, §4

mice [9] = assay: Rectal temperature (hypothermia) in mice, compound alone (agonism test); assay type: in vivo; conditions: for ED50: Mus musculus, iv
Method: as §1, §2, §3, §4

mice [10] = assay: Rectal temperature in mice, compound in combination with 3 mg/kg Δ^9-THC (antagonism test); assay type: in vivo
Method: as §1, §2, §3, §4

mice [11] = assay: Agonism tests in mice, stated across the triad (spontaneous activity, tail flick, rectal temperature); conditions: compound alone, i.v. doses up to 30 mg/kg
[12] = Mus musculus, iv, read-out: Max stim of spontaneous locomotor activity, Compound Alone
[13] = Mus musculus, iv, at 30 mg/kg i.v.
[14] = Mus musculus, iv, mice, i.v., read-out: SA: > dose, 50% activity not achieved at this highest dose tested
[15] = read-out: TF: > dose, 50% activity not achieved at this highest dose tested
[16] = read-out: RT: > dose, 50% activity not achieved at this highest dose tested
[17] = at the dose(s) [mg/kg] given in parentheses in the cell
[18] = Mus musculus, iv, mice, i.v., 95% confidence limits in parentheses, * = estimated ED50, dose-effect curve not linear, read-out: SA (suppression of spontaneous activity) ED50
[19] = 20 min, i.v., 20 min post-injection, 95% confidence limits in parentheses, * = estimated ED50, dose-effect curve not linear, read-out: TF (tail flick, % MPE) ED50
[20] = 0.5 h, i.v., 30 min post-injection, 95% confidence limits in parentheses, read-out: RT (rectal temperature) ED50

Structure (SMILES): Cc1c(C(=O)NN2CCCCC2)nn(-c2ccc(Cl)cc2Cl)c1-c1ccc(Cl)cc1 [SR141716A, N-(piperidin-1-yl)-5-(4-chlorophenyl)-1-(2,4-dichlorophenyl)-4-methyl-1H-pyrazole-3-carboxamide hydrochloride, reference compound]
- SA: maximum % antagonism of 3 mg/kg Δ^9-THC (mice [1]; at 3 mg/kg i.v.): 100% (3)
- % MPE: maximum % antagonism of 3 mg/kg Δ^9-THC (mice [2]; at 0.1 mg/kg i.v.): 96% (0.1)
- SA: > dose, 50% activity not achieved at this highest dose tested (mice [3]; from Compton et al., 1996): >30^c mg/kg
- TF: > dose, 50% activity not achieved at this highest dose tested (mice [4]; from Compton et al., 1996): >30^c mg/kg
- RT: > dose, 50% activity not achieved at this highest dose tested (mice [5]; from Compton et al., 1996): >30^c mg/kg
- antagonism of locomotor suppressant, antinociceptive and hypothermic effects of Δ^9-THC (in words) (mice [6]; 3 mg/kg Δ^9-THC i.v.): fully antagonized

Structure (SMILES): CCCCCc1cc(O)c2c(c1)OC(C)(C)[C@@H]1CCC(C)=C[C@@H]21 [Δ^9-THC, Δ^9-tetrahydrocannabinol]
- SA (suppression of spontaneous activity) ED50 (mice [3]; from Wiley et al., 1998): 0.92 µmol/kg
- TF (tail flick, % MPE) ED50 (mice [4]; from Wiley et al., 1998): 2.7 µmol/kg
- RT (rectal temperature) ED50 (mice [5]; from Wiley et al., 1998): 2.5 µmol/kg

Structure (SMILES): CCCCCC(=O)c1nn(-c2ccc(Cl)cc2Cl)c(-c2ccc(Cl)cc2)c1C [Compound O-1271]
- Ki (CB1 receptor; Ki (nM)): 82 ± 10 nM
- change in vivo at 3 mg/kg (mice [7]; [12]): 54%
- inhibition in vivo at 30 mg/kg (mice [7]; [13]): 7%
- ED50 (mice [7]; [14]): > 30 mg/kg
- stimulation of locomotor activity (mice [7]): 54%
- ED50 (mice [8]; [15]): > 30 mg/kg
- ED50 (mice [9]; [16]): > 30 mg/kg
- Max % inhibit of spontaneous locomotor activity, Compound with 3 mg/kg Δ^9-THC (mice [1]; at 3 mg/kg i.v.): 58% (3)
- SA: maximum % antagonism of 3 mg/kg Δ^9-THC (mice [1]; at 10 mg/kg i.v.): 77% (10)
- Max stim of spontaneous locomotor activity, Compound with 3 mg/kg Δ^9-THC (in words) (mice [1]; [17]): None (3 & 10)
- % MPE: maximum % antagonism of 3 mg/kg Δ^9-THC (mice [2]; at 10 mg/kg i.v.): 65% (10)
- RT: maximum % antagonism of 3 mg/kg Δ^9-THC (mice [10]; at 3 mg/kg i.v.): 36% (3)
- in vivo cannabinoid agonist activity (in words) (mice [11]): eliminated in vivo cannabimimetic activity; also recorded: did not have agonist properties
- average % antagonism across the three measures (mice [6]; in combination with 3 mg/kg Δ^9-THC i.v.): 59%

Structure (SMILES): CCCCCNC(=O)c1nn(-c2ccc(Cl)cc2Cl)c(-c2ccc(Cl)cc2)c1C [Compound O-1269, N-(n-pentyl)-5-(4-chlorophenyl)-1-(2,4-dichlorophenyl)-4-methyl-1H-pyrazole-3-carboxamide]
- Ki (CB1 receptor; Ki (nM)): 32 ± 5 nM
- change in vivo at 1 mg/kg (mice [7]; Mus musculus, iv, at 1 mg/kg i.v., read-out: Max stim of spontaneous locomotor activity, Compound Alone): 7%
- inhibition in vivo at 30 mg/kg (mice [7]; [13]): 87%
- ED50 (mice [7]; [18]): 11 µmol/kg
- ED50 (mice [8]; [19]): 21 µmol/kg
- ED50 (mice [9]; [20]): 11 µmol/kg
- SA: maximum % antagonism of 3 mg/kg Δ^9-THC (mice [1]; at 3 mg/kg i.v.): 38% (3)
- Max % inhibit of spontaneous locomotor activity, Compound with 3 mg/kg Δ^9-THC (mice [1]; at 10 mg/kg i.v.): 91% (10)
- Max stim of spontaneous locomotor activity, Compound with 3 mg/kg Δ^9-THC (in words) (mice [1]; [17]): None (1, 3 & 10)
- % MPE: maximum % antagonism of 3 mg/kg Δ^9-THC (mice [2]; at 3 mg/kg i.v.): 66% (3)
- RT: maximum % antagonism of 3 mg/kg Δ^9-THC (mice [10]; at 1 mg/kg i.v.): 43% (1)
- in vivo cannabinoid agonist activity (in words) (mice [11]): agonist activity

Structure (SMILES): CCCCCCCC(=O)c1nn(-c2ccc(Cl)cc2Cl)c(-c2ccc(Cl)cc2)c1C [Compound O-1272]
- Ki (CB1 receptor; read-out: Ki): 221 ± 36 nM
- change in vivo at 3 mg/kg (mice [7]; [12]): 17%
- inhibition in vivo at 30 mg/kg (mice [7]; [13]): 54%
- SA: maximal effect produced by the analog (mice [7]; mice, i.v., at 30 mg/kg): 54% (30)^#
- ED50 (mice [8]; [15]): > 30 mg/kg
- RT: maximal effect produced by the analog (change in rectal temperature) (mice [9]; i.v., at 30 mg/kg): −3 (30)^# ° C.
- in vivo cannabinoid agonist activity (in words) (mice [11]): eliminated in vivo cannabimimetic activity

Structure (SMILES): CCC(C)c1ccc(-n2nc(C(=O)NN3CCCCC3)c(C)c2-c2ccc(Cl)cc2)cc1 (stereo not drawn) [Compound O-1253]
- Ki (CB1 receptor; Ki (nM)): 47 ± 2 nM
- CB1 binding affinity, fold less than SR 141716A (CB1 receptor; compared to SR 141716A): 8 fold
- change in vivo at 30 mg/kg (mice [7]; Mus musculus, iv, at 30 mg/kg i.v., read-out: Max stim of spontaneous locomotor activity, Compound Alone): 73%
- ED50 (mice [7]; [14]): > 30 mg/kg
- Max % inhibit of spontaneous locomotor activity, Compound Alone (in words: stimulation instead of inhibition) (mice [7]; doses in mg/kg): stim at 1, 3, 10 & 30
- ED50 (mice [8]; [15]): > 30 mg/kg
- ED50 (mice [9]; [16]): > 30 mg/kg
- Max % inhibit of spontaneous locomotor activity, Compound with 3 mg/kg Δ^9-THC (mice [1]; at 0.1 mg/kg i.v.): 89% (0.1)
- SA: maximum % antagonism of 3 mg/kg Δ^9-THC (mice [1]; at 1 mg/kg i.v.): 97% (1)
- Max stim of spontaneous locomotor activity, Compound with 3 mg/kg Δ^9-THC (mice [1]; at 10 mg/kg i.v.): 50% (10)
- antagonism of the antinociceptive and hypothermic effects of Δ^9-THC (in words) (mice [6]; 3 mg/kg Δ^9-THC i.v.): full, dose-dependent antagonism

Structure (SMILES): CCCCCCCNC(=O)c1nn(-c2ccc(Cl)cc2Cl)c(-c2ccc(Cl)cc2)c1C [Compound O-1270, N-(n-heptyl)-5-(4-chlorophenyl)-1-(2,4-dichlorophenyl)-4-methyl-1H-pyrazole-3-carboxamide]
- Ki (CB1 receptor; Ki (nM)): 48 ± 12 nM
- change in vivo at 3 mg/kg (mice [7]; [12]): 29%
- inhibition in vivo at 30 mg/kg (mice [7]; [13]): 80%
- ED50 (mice [7]; [18]): 27 µmol/kg
- stimulation of locomotor activity (mice [7]): 29%
- ED50 (mice [8]; [19]): 20 µmol/kg
- ED50 (mice [9]; [20]): 12 µmol/kg
- Max % inhibit of spontaneous locomotor activity, Compound with 3 mg/kg Δ^9-THC (mice [1]; at 10 mg/kg i.v.): 87% (10)
- Max stim of spontaneous locomotor activity, Compound with 3 mg/kg Δ^9-THC (in words) (mice [1]; [17]): None (10)
- SA: maximum % antagonism of 3 mg/kg Δ^9-THC (in words) (mice [1]; [17]): None (10)
- % MPE: maximum % antagonism of 3 mg/kg Δ^9-THC (mice [2]; at 3 mg/kg i.v.): 37% (3)
- RT: maximum % antagonism of 3 mg/kg Δ^9-THC (mice [10]; at 1 mg/kg i.v.): 26% (1)
- in vivo cannabinoid agonist activity (in words) (mice [11]): agonist activity
